Laboratory results taken from PMC6831561, “Pharmacological and Behavioral Effects of the Synthetic Cannabinoid AKB48 in Rats” (Frontiers in Neuroscience, 2019).

What was measured:
Type in all cases: in vivo
rats [1] = assay: Visual object response test
Source text: (§1) Visual response was verified by two behavioral tests that evaluated the ability of the rat to capture visual information even when stationary (the visual object response) or when moving (the visual placing response). The visual object response test was used to evaluate the ability of the rat to see an object approaching from the front or the side, inducing the animal to shift or turn its head or to retreat (modified from [Ossato et al., 2015]; [Marti et al., 2019]). For the frontal visual response, a white horizontal bar was moved frontally to the rat’s head; the maneuver was repeated three times. For the lateral visual response, a small dentist’s mirror was moved into the rat’s field of view in a horizontal arc until the stimulus was between the rat’s eyes. The procedure was conducted bilaterally and was repeated three times. The score assigned was a value of 1 if there was a reflection in the rat movement or 0 if not. The total value was calculated by adding the scores obtained in the frontal with that obtained in the lateral visual object response (overall score 9). Evaluation of the visual object response was measured at 0, 10, 30, 60, 120, and 180 min post-injection. The visual placing response test was performed using a tail suspension-modified apparatus able to bring the rat toward the floor at a constant speed of 10 cm/sec (modified from [Ossato et al., 2015]; [Marti et al., 2019]). The downward movement of the rat was videotaped. Frame-by-frame analysis allowed us to evaluate the beginning of the reaction of the rat while it was close to the floor. When the rat started the reaction, an electronic ruler evaluated the perpendicular distance in millimeters between the eyes of the rat to the floor. The naïve rats perceived the floor and prepared for contact at a distance of about 27 ± 4.5 mm. Evaluation of the visual placing response was measured at 0, 15, 35, 65, 125, and 190 min post-injection.

rats [2] = assay: Visual placing response test
Source text: as §1

rats [3] = assay: Acoustic response test
Method: Acoustic response measures the reflex of the rat in reply to an acoustic stimulus produced behind the animal. Four acoustic stimuli of different intensities and frequencies were tested (see [Marti et al., 2019]). Each sound test was repeated three times, giving a value of 1 if there was a response and 0 if not present, for a total score of 3 for each sound. The acoustic total score was calculated by adding scores obtained in the four tests (overall score 12). Evaluation of the […] was measured at 0, 10, 30, 60, 120, and 180 min post-injection.

rats [4] = assay: Overall tactile response (vibrissae, pinna, corneal reflexes)
Method: Tactile responses were verified through vibrissae, pinna, and corneal reflexes ([Marti et al., 2019]), and data were expressed as the sum of these parameters. The vibrissae reflex was evaluated by touching the vibrissae (right and left) with a thin hypodermic needle once per side, giving a value of 1 if there was a reflex (turning of the head to the side of touch or vibrissae movement) or 0 if not present (overall score 2). Evaluation of the vibrissae reflex was measured at 0, 10, 30, 60, 120, and 180 min post-injection. The pinna reflex was assessed by touching the pavilions (left and right) with a thin hypodermic needle, the interior pavilions first. This test was repeated twice per side, giving a value of 1 if there was a reflex and 0 if not present (overall score 4). Evaluation of the pinna reflex was measured at 0, 10, 30, 60, 120, and 180 min post-injection. The corneal reflex was assessed by gently touching the cornea with a thin hypodermic needle and evaluating the response, assigning a value of 1 if the rat moved only its head, 2 if it only closed its eyelid, and 3 if it closed its lid and moved its head. The procedure was conducted bilaterally (overall score 6) and was measured at 0, 10, 30, 60, 120, and 180 min post-injection.

rats [5] = assay: Tail pinch test (acute mechanical nociception)
Method: Acute mechanical nociception was evaluated using the tail pinch tests (modified by [Vigolo et al., 2015]). A special rigid probe connected to a digital dynamometer (ZP-50N, IMADA, Japan) was gently placed on the tail (in the distal portion), and progressive pressure was applied. When the rat flicked its tail, the pressure was stopped, and the digital instrument saved the maximum peak of weight supported (g/force). A cut-off (500 g/force) was set to avoid tissue damage. The test was repeated three times, and the final value was calculated with the average of three obtained scores. Acute mechanical nociception was measured at 0, 20, 40, 70, 140, and 195 min post-injection.

rats [6] = assay: Bar test (catalepsy)
Method: In the bar test, the rat’s forelimbs were placed on a bar made of plastic (height 6 cm). The time spent on the bar was measured (immobility cut-off: 20 sec), and akinesia was calculated as the total time spent on the bar after three consecutive trials (total maximal time of catalepsy: 60 s; [De Luca et al., 2015]; [Canazza et al., 2016]). The bar test was performed at 0, 20, 40, 70, 140, and 195 min post-injection.

rats [7] = assay: Startle and pre-pulse inhibition
Method: As previously reported ([Marti et al., 2019]), rats were tested for acoustic startle reactivity in startle chambers (Ugo Basile apparatus, Milan, Italy) consisting of a sound-attenuated, lighted, and ventilated enclosure holding a transparent non-restrictive Perspex® cage (modified version for rats 200 × 90 × 80 mm). A loudspeaker mounted laterally by the holder produced all acoustic stimuli. Peaks and amplitudes of the startle response were detected by a load cell. At the onset of the startling stimulus, 300 ms readings were recorded, and the wave amplitude evoked by the movement of the rat startle response was measured. Acoustic startle test sessions consisted of startle trials (pulse-alone) and pre-pulse trials (pre-pulse + pulse). The pulse-alone trial consisted of a 40 ms 120 dB pulse. Pre-pulse + pulse trial sequences consisted of a 20 ms acoustic pre-pulse, 80 ms delay, and then a 40 ms, 120 dB startle pulse (100 ms onset–onset). There was an average of 15 s (range = from 9 to 21 s) between the trials. Each startle session began with a 10 min acclimation period with a 65 dB broadband white noise that was present continuously throughout the session. The test session contained 40 trials composed by pulse-alone and pre-pulse + pulse trials (with three different pre-pulses of 68, 75, and 85 dB) presented in a pseudorandomized order. Rats were placed in the startle chambers 5 min after treatment with AKB48. The entire startle/PPI test lasted 20 min. The pre-pulse inhibition (PPI) was expressed as the percentage decrease in the amplitude of the startle reactivity caused by the presentation of the pre-pulse. AKB48 (0.1–3 mg/kg i.p.) was administered intraperitoneally, and startle/PPI responses were recorded 15 min (including the 10 min acclimation period) after drug injections.

[8] = AKB48, only at the highest dose (3 mg/kg i.p.)
[9] = AKB48 highest dose (3 mg/kg i.p.)
[10] = AKB48 0.1–3 mg/kg i.p., 15 min after treatment
[11] = AM251 1 mg/kg i.p. before AKB48 3 mg/kg i.p.
[12] = AM251 1 mg/kg i.p. before AKB48 3 mg/kg
[13] = AM251 1 mg/kg i.p. alone (data not shown)

SMILES: CCCCCn1nc(C(=O)NC23CC4CC(CC(C4)C2)C3)c2ccccc21 [AKB48, N-(1-adamantyl)-1-pentyl-1H-indazole-3-carboxamide]
- persistence of the reduction of visual object response (rats [1]; AKB48 0.3 mg/kg i.p.): transient
- visual object response (rats [1]; AKB48 0.1–3.0 mg/kg i.p., 180 min observation): dose-dependently reduced
- persistence of the reduction of visual object response (rats [1]; AKB48 0.5 and 3.0 mg/kg i.p.): up to 180 min
- persistence of the reduction of visual placing response (rats [2]; AKB48 3 mg/kg i.p.): up to 190 min
- visual placing response (rats [2]; AKB48 0.1–3 mg/kg i.p., 190 min observation): reduced
- acoustic response (rats [3]; [8]): reduced
- persistence of the reduction of acoustic response (rats [3]; [9]): up to 120 min
- reduction of overall tactile response (rats [4]; [8]): ~23%
- persistence of the reduction of tactile response (rats [4]; [9]): up to 60 min
- threshold to acute mechanical pain stimulus (tail pinch test) (rats [5]; AKB48 0.1–3 mg/kg i.p.): slightly increased
- time spent on the bar (rats [6]; AKB48 0.1–3 mg/kg i.p.): slightly increased
- PPI at 68 dB of pre-pulse intensity (rats [7]; [10]): inhibited
- PPI at 75 dB of pre-pulse intensity (rats [7]; [10]): inhibited
- inhibition at 3 mg/kg (rats [7]; Rattus norvegicus, 0.25 h, AKB48 3 mg/kg, 15 min after administration, read-out: inhibition of startle amplitude): ~50%

SMILES: Cc1c(C(=O)NN2CCCCC2)nn(-c2ccc(Cl)cc2Cl)c1-c1ccc(I)cc1 [AM251, 1-(2,4-dichlorophenyl)-5-(4-iodophenyl)-4-methyl-N-(piperidin-1-yl)-1H-pyrazole-3-carboxamide, reference compound]
- visual object response, AM251 alone (rats [1]; AM251 1 mg/kg i.p. alone): did not alter
- inhibition of visual object response induced by AKB48, after AM251 pre-treatment (rats [1]; [11]): prevented
- visual placing response, AM251 alone (rats [2]; AM251 1 mg/kg i.p. alone): did not alter
- visual impairment (placing) induced by AKB48, after AM251 pre-treatment (rats [2]; [12]): prevented
- acoustic response, AM251 alone (rats [3]; [13]): did not alter
- inhibition of acoustic response induced by AKB48, after AM251 pre-treatment (rats [3]; [11]): prevented
- response to AM251 alone in the tactile response section (rats [4]; [13]): did not alter
- inhibition of overall tactile response induced by AKB48, after AM251 pre-treatment (rats [4]; [11]): prevented
- threshold to acute mechanical pain stimuli, AM251 alone (rats [5]; AM251 1 mg/kg i.p. alone): did not alter
- AKB48 effect on mechanical pain threshold, after AM251 pre-treatment (rats [5]; [12]): prevented
- catalepsy, AM251 alone (rats [6]; AM251 1 mg/kg i.p. alone): did not induce catalepsy
- AKB48 effect on time spent on the bar, after AM251 pre-treatment (rats [6]; [12]): prevented
- inhibitory effect of AKB48 on PPI at 68 dB, with AM251 (rats [7]; AM251 1 mg/kg i.p. + AKB48): prevented
- inhibitory effect of AKB48 on PPI at 75 dB, with AM251 (rats [7]; AM251 1 mg/kg i.p. + AKB48): prevented
- inhibitory effect of AKB48 on startle, with AM251 (rats [7]; AM251 1 mg/kg i.p. + AKB48): prevented
- startle response, AM251 alone (rats [7]; AM251 1 mg/kg i.p. alone): did not modify
